Measured values as given in PubChem BioAssay AID2060627 (Molecular Pharmacology Branch, DTP, NCI, 2025).
“And” between values parts separate entries of the source, which are not always exact repeats. Equal values may be shown once.

Test system: 156681-154-R-J1-PDC complex spheroid viability
Experiment: Anticancer human tumor 156681-154-R-J1-PDC patient-derived melanoma cell line growth inhibition [CLK]
Settings: for viability, T/C: stronger effect = lower value; active = viability on the fitted dose curve at most 10% of control; inactive = the rest
From the text: A high-throughput screen of multi-cell type tumor spheroids was designed to identify active combinations of […] and targeted small molecules. Complex spheroids include a stromal component modeled by human endothelial cells (HUVEC) and fibroblasts modeled by human mesenchymal stem cells (MSCs). The concentration ranges selected for each drug and investigational agent were based upon clinically achievable concentrations if the clinical Cmax of the agent was known.
Compounds. The drugs and investigational agents: cirtuvivint (SM08502; NSC835563), CC-671 (NSC850746), vemurafenib (NSC761431), tapotoclax (NSC804041), sotorasib (NSC818433), adagrasib (NSC831453), MRTX-1133 (NSC836407), BAY2416964 (NSC825713), copanlisib (NSC816437), inavolisib (NSC800729), abemaciclib (NSC768073), osimertinib (NSC779217), entinostat (NSC756642), eltanexor (KPT-8602, NSC794443), venetoclax (NSC766270), ceralasertib (NSC777638), bortezomib (NSC756655), olaparib (NSC753686), talazoparib (NSC767125), alisertib (NSC759677), peposertib (NSC802822), gemcitabine (NSC613327), 5-fluorouracil (NSC19893), SN-38 (NSC673596), oxaliplatin (NSC266046), paclitaxel (NSC125973), and doxorubicin (NSC123127), were obtained from the National Cancer Institute (NCI) Developmental Therapeutics Program Chemical Repository. The FDA-approved anticancer drug set is available from the Developmental Therapeutics Program at https://dtp.cancer.gov/organization/dscb/obtaining/available plates.htm. […] The stock solutions were prepared in dimethyl sulfoxide (DMSO, Sigma-Aldrich, St. Louis, MO, cat. D2650), except for the platinum complexes which were prepared in saline (Quality Biological, Gaithersburg, MD, cat. 114-055-101), at 800-fold the tested concentration and stored at -70 degrees C prior to their use. All drugs and investigational agents were tested over a range starting from a high concentration at or near the clinical Cmax and decreasing in half-log increments. If the clinical Cmax for an agent had not been determined, the highest concentration tested was 10 microM.
Cell Culture. All cells were maintained in an incubator at 37 degrees C and 5% CO2 with 95% humidity. The PDC lines were cultured according to standard operating procedures established by the NCI PDMR. Briefly, all PDCs were thawed and cultured in Matrigel-coated flasks prepared with a working solution of 1X Ham's F-12 nutrient mix, without supplementation (Invitrogen, Waltham, MA, cat. 11765054), 100 U/mL penicillin-streptomycin (Invitrogen, cat. 15140122), and 2.5% Matrigel (Corning Inc., Corning, NY, cat. 354248) for the first three passages. The 947758-054-R-J2-PDC line was cultured in 6B/Colon 1A media, which includes advanced DMEM/F-12 (Thermo Fisher Scientific, cat. 12634028), 10 mM HEPES (Thermo Fisher Scientific, cat. 15630080), 1X GlutaMAX supplement (Thermo Fisher Scientific, cat. 35050061), 0.1 mg/mL primocin (InvivoGen, cat. ant-pm-2), 10% defined fetal bovine serum, heat inactivated (HyClone Laboratories Inc., cat. SH30070.03HI), 1.25 mM N-Acetyl-L-cysteine (Sigma-Aldrich, cat. A9165), 10 mM nicotinamide (Sigma-Aldrich, cat. N0636), 1X B-27 supplement (Thermo Fisher Scientific, cat. 17504044), 1X N-2 supplement (Thermo Fisher Scientific, cat. 17502048), and 10 microM Y-27632 dihydrochloride (Tocris Bioscience, cat. 1254). The 876862-298-R-J1-PDC was cultured in 6E media, which includes all 6B/Colon 1A media components plus 50% L-WRN conditioned media (ATCC, cat. CRL-3276), 50 ng/mL recombinant human EGF recombinant protein (hEGF; Thermo Fisher Scientific, cat. PHG0311), 10 ng/mL recombinant human fibroblast growth factor 10 (hGFG-10; PeproTech, cat. 100-26), 1 ng/mL recombinant human fibroblast growth factor 2 (hFGF-2; PeproTech, cat. 100-18B), and 1 µM prostaglandin E2 (PGE2; Tocris, cat. 2296). The 227483-062-R1-J1-PDC line was cultured in Panc media, containing all 6E components except hFGF-2, with the addition of 500 nM SB-431542 (Selleckchem, cat. S1067) and 10 nM gastrin (Tocris, cat. 3006). […]

[1] = curve of first compound, second compound 0.0316 µM
[2] = curve of first compound, second compound 0.1 µM
[3] = curve of first compound, second compound 0.316 µM
[4] = curve of first compound, second compound 1 µM
[5] = curve of first compound, second compound 3.16 µM
[6] = curve of first compound, second compound 10 µM
[7] = second compound 0.0316 µM, first compound 0.0316 µM
[8] = second compound 0.0316 µM, first compound 0.1 µM
[9] = second compound 0.0316 µM, first compound 0.316 µM
[10] = second compound 0.0316 µM, first compound 1 µM
[11] = second compound 0.0316 µM, first compound 3.16 µM
[12] = second compound 0.0316 µM, first compound 10 µM
[13] = second compound 0.1 µM, first compound 0.0316 µM
[14] = second compound 0.1 µM, first compound 0.1 µM
[15] = second compound 0.1 µM, first compound 0.316 µM
[16] = second compound 0.1 µM, first compound 1 µM
[17] = second compound 0.1 µM, first compound 3.16 µM
[18] = second compound 0.1 µM, first compound 10 µM
[19] = second compound 0.316 µM, first compound 0.0316 µM
[20] = second compound 0.316 µM, first compound 0.1 µM
[21] = second compound 0.316 µM, first compound 0.316 µM
[22] = second compound 0.316 µM, first compound 1 µM
[23] = second compound 0.316 µM, first compound 3.16 µM
[24] = second compound 0.316 µM, first compound 10 µM
[25] = second compound 1 µM, first compound 0.0316 µM
[26] = second compound 1 µM, first compound 0.1 µM
[27] = second compound 1 µM, first compound 0.316 µM
[28] = second compound 1 µM, first compound 1 µM
[29] = second compound 1 µM, first compound 3.16 µM
[30] = second compound 1 µM, first compound 10 µM
[31] = second compound 3.16 µM, first compound 0.0316 µM
[32] = second compound 3.16 µM, first compound 0.1 µM
[33] = second compound 3.16 µM, first compound 0.316 µM
[34] = second compound 3.16 µM, first compound 1 µM
[35] = second compound 3.16 µM, first compound 3.16 µM
[36] = second compound 3.16 µM, first compound 10 µM
[37] = second compound 10 µM, first compound 0.0316 µM
[38] = second compound 10 µM, first compound 0.1 µM
[39] = second compound 10 µM, first compound 0.316 µM
[40] = second compound 10 µM, first compound 1 µM
[41] = second compound 10 µM, first compound 3.16 µM
[42] = second compound 10 µM, first compound 10 µM
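Note: spheroids exposed to the agents for seven days.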

COC1C=CCC(C)C(C)S(=O)(=O)NC(=O)c2ccc3c(c2)N(CC2CCC21)CC1(CCCc2cc(Cl)ccc21)CO3 (stereo not given) + CNC(=O)c1ccc(Nc2nc(OC3CCCC3)c3c(-c4ccc5nc(C)oc5c4)c[nH]c3n2)c(OC)c1
inactive: viability, T/C [7] 96.3% | viability, T/C [8] 93.1% | viability, T/C [9] 84.3% | viability, T/C [10] 54% | viability, T/C [11] 9.3% | viability, T/C [13] 60.2% | viability, T/C [14] 57% | viability, T/C [15] 48.8% | viability, T/C [16] 36.5% | viability, T/C [17] 12.5% | viability, T/C [19] 55.6% | viability, T/C [20] 49.5% | viability, T/C [21] 35.6% | viability, T/C [22] 20.6% | viability, T/C [25] 43.4% | viability, T/C [26] 42.6% | viability, T/C [27] 24.4% | viability, T/C [28] 19.5% | viability, T/C [31] 35.7% | viability, T/C [32] 39% | viability, T/C [33] 15.3% | viability, T/C [34] 15.1% | viability, T/C [37] 30.4% | viability, T/C [38] 32.5% | viability, T/C [39] 16.2% | viability, T/C [40] 13.8%
1070 nM: IC50 [1]
327 nM: IC50 [2]
active: viability, T/C [12] 1.52% | viability, T/C [18] 1.5% | viability, T/C [23] 5.31% | viability, T/C [24] 2.16% | viability, T/C [29] 8.99% | viability, T/C [30] 2.33% | viability, T/C [35] 7.52% | viability, T/C [36] 3.33% | viability, T/C [41] 10.4% | viability, T/C [42] 5.15%
< 31.6 nM: IC50 [4] | IC50 [5] | IC50 [6]
88.5 nM: IC50 [3]

C=CC(=O)Nc1cc(Nc2nccc(-c3cn(C)c4ccccc34)n2)c(OC)cc1N(C)CCN(C)C
inactive: viability, T/C (compound 0.000949 µM) 98.3% and 114% | viability, T/C (compound 0.003 µM) 88.5% and 85.6% | viability, T/C (compound 0.00949 µM) 96.7% and 88.3% | viability, T/C (compound 0.03 µM) 101% and 96.3% | viability, T/C (compound 0.0949 µM) 93.5% and 100% | viability, T/C (compound 0.3 µM) 80.8% and 90%
> 300 nM: IC50 (curve of compound)

CCCS(=O)(=O)Nc1ccc(F)c(C(=O)c2c[nH]c3ncc(-c4ccc(Cl)cc4)cc23)c1F
11.3% and 6.41%: viability, T/C (compound 10 µM)
5500 nM and 4990 nM: IC50 (curve of compound)
inactive: viability, T/C (compound 0.0316 µM) 90.6% and 79.6% | viability, T/C (compound 0.1 µM) 77.4% and 59.3% | viability, T/C (compound 0.316 µM) 99.6% and 96.6% | viability, T/C (compound 1 µM) 92.4% and 73.8% | viability, T/C (compound 3.16 µM) 85.8% and 83.2%

C#Cc1c(F)ccc2cc(O)cc(-c3ncc4c(N5CC6CCC(C5)N6)nc(OCC56CCCN5CC(F)C6)nc4c3F)c12 (stereo not given) + CNC(=O)c1ccc(Nc2nc(OC3CCCC3)c3c(-c4ccc5nc(C)oc5c4)c[nH]c3n2)c(OC)c1
inactive: viability, T/C [7] 86% | viability, T/C [8] 94.4% | viability, T/C [9] 104% | viability, T/C [10] 109% | viability, T/C [11] 113% | viability, T/C [12] 101% | viability, T/C [13] 53.5% | viability, T/C [14] 73.8% | viability, T/C [15] 60.3% | viability, T/C [16] 70% | viability, T/C [17] 73.6% | viability, T/C [18] 62.9% | viability, T/C [19] 62.4% | viability, T/C [20] 48.6% | viability, T/C [21] 66.4% | viability, T/C [22] 65.9% | viability, T/C [23] 67% | viability, T/C [24] 65.2% | viability, T/C [25] 43.2% | viability, T/C [26] 53.5% | viability, T/C [27] 47.9% | viability, T/C [28] 56% | viability, T/C [29] 63.6% | viability, T/C [30] 31.6% | viability, T/C [31] 54.5% | viability, T/C [32] 49.8% | viability, T/C [33] 39.2% | viability, T/C [34] 49.8% | viability, T/C [35] 50.4% | viability, T/C [36] 20.2% | viability, T/C [37] 45.7% | viability, T/C [38] 38.5% | viability, T/C [39] 36.7% | viability, T/C [40] 50% | viability, T/C [41] 43% | viability, T/C [42] 13.2%
114 nM: IC50 [4]
< 31.6 nM: IC50 [5] | IC50 [6]
> 10000 nM: IC50 [1] | IC50 [2] | IC50 [3]

COc1cccc2c1C(=O)c1c(O)c3c(c(O)c1C2=O)CC(O)(C(=O)CO)CC3OC1CC(N)C(O)C(C)O1 (stereo not given)
inactive: viability, T/C (compound 0.0316 µM) 37% and 29.8% | viability, T/C (compound 0.1 µM) 25.2% and 19.9%
active: viability, T/C (compound 0.316 µM) 9.16% and 2.97% | viability, T/C (compound 1 µM) 0.48% and 0.17% | viability, T/C (compound 3.16 µM) 1.37% and 0.12% | viability, T/C (compound 10 µM) 2.47% and 0.67%
< 31.6 nM: IC50 (curve of compound)
